According to patent publication US20120148595A1, “GABA-LINKED ANTHRACYCLINE-LIPID CONJUGATES” (Luitpold Pharmaceuticals, Inc., priority 2009, published 2012):
Converted amounts (≈) assume the structure as drawn. “And” between values parts separate entries of the source, which are not always exact repeats. Identical values can stand only once. “Also recorded” adds a separate entry of the source. Like-named read-outs stand apart in the source and are kept apart here.

Experiments:
HT-29 human colon tumor = assay: nude mouse xenograft model of the HT-29 human colon tumor; type: in vivo; settings: for Complete Regressions / Days Delay T-C / Drug-related Deaths: nude mouse
Method: (§1) The dosing schedule was Q3D×5.
In the nude mouse xenograft model of the HT-29 human colon tumor (Table 3), doxorubicin produced a T-C delay of 15.3 days at the MTD dose of 6 mg/kg, whereas P-367 (LOC-GABA-doxorubicin) produced a T-C delay of 32 days at 50 mg/kg and 22 at 25 mg/kg. Note that the activity of the lowest dose of LOC-GABA-doxorubicin is approximately equivalent to the highest, MTD of doxorubicin itself.

[1] = Solubility in solvents/excipients; type: physicochemical
Source text: Table 7 summarizes the solubility of LOC-GABA-doxorubicin in several solvents.

[2] = system: Madison 109 (M109) mouse lung carcinoma
Method: In all of the following in vivo experiments, the parent compound, doxorubicin, was injected intravenously (i.v.) in saline, while the fatty acid conjugates of doxorubicin were injected i.v. in 10% Cremophor® EL-P/10% ethanol/80% saline. The dosing schedule was Q3D×5.
T-C in this assay is defined as the time in days for the drug-treated tumors to double their mass three times subtracted […] to double their mass three times.

tumor growth = assay: anti-tumor activity of GABA-linked conjugate compared to the unconjugated anticancer agent (model not given); type: in vivo; settings: model not specified
Source text: The anti-tumor activity of LOC-GABA-doxorubicin was studied in three tumor models.

[3] = system: MDA-MB-435 human breast tumor; assay: nude mouse xenograft model of the MDA-MB-435 human breast tumor; type: in vivo; settings: for Complete Regressions / Days Delay T-C / Drug-related Deaths: nude mouse
Method: as §1
In the nude mouse xenograft model of the MDA-MB-435 human breast tumor (Table 4), doxorubicin produced a T-C delay of 14 days at the approximate MTD dose of 6 mg/kg (1/10 drug-related deaths). In the same model, LOC-GABA-doxorubicin produced a T-C delay of 13 days at 50 mg/kg (6/10 drug-related deaths) and 1.5 days at 25 mg/kg (0 drug-related deaths).

[4] = Stability in mouse serum/plasma at 37° C., HPLC; type: in vitro ADME
Method: […] Serum samples added with only ethanol/Cremophor® were used as controls.
Aliquots (100 μL) were taken from the spiked samples at 0, 1, 4, 8 and 24 h time intervals. Proteins were precipitated from the spiked solutions by the addition of 300 μL of acetonitrile. The suspensions were centrifuged and the supernatant transferred to separate microfuge tubes. The precipitate was washed twice with 300 μL of 90% acetonitrile. The wash solutions were combined with the supernatant and evaporated to dryness using a Centrivap Concentrator. The residue was then dissolved in 100 μL of methanol. Vortex mixing and sonication for 30 sec each were used to help dissolve the residue. The solution was then centrifuged at 10,000 rpm for 15 min. A 20 μL aliquot of the supernatant was analyzed by HPLC (Phenomenex column, C18, 250×4.6 mm, 5 u) using the following gradient conditions: […]
UV detection: 487 nm; column temperature: 40° C.; flow rate: 1 mL/min. Analytes were quantitated by comparison of peak areas from direct injections of standard solutions with those obtained from samples subjected to the extraction procedure. The percent recovery of spiked analytes was calculated by comparison of the sample peak areas before incubation (time: 0 h) with those subjected to incubation at 37° C. […]

[5] = Toxicology: maximum tolerated dose, i.v. Q3D×5; settings: mouse, in vivo, iv; i.v. 5 times on a once every three day schedule
Source text: as §1

M109-Lung Tumor = M109-Lung Tumor Model (Table 5, second study with OOC-GABA-doxorubicin); type: in vivo, mouse
Source text: as §1

SMILES: CCCCC/C=C\C/C=C\CCCCCCCCOC(=O)NCCCC(=O)N[C@H]1C[C@H](O[C@H]2C[C@](O)(C(=O)CO)Cc3c(O)c4c(c(O)c32)C(=O)c2c(OC)cccc2C4=O)O[C@@H](C)[C@H]1O [LOC-GABA-doxorubicin, linoleyl alcohol-GABA-doxorubicin]
- Complete Regressions (HT-29 human colon tumor; 12.5 mg/kg i.v. Q3D×5): 0
- Days Delay T-C (HT-29 human colon tumor; 12.5 mg/kg i.v. Q3D×5): 5.4 days
- Drug-related Deaths (HT-29 human colon tumor; 12.5 mg/kg i.v. Q3D×5): 0/10
- Complete Regressions (HT-29 human colon tumor; 25 mg/kg i.v. Q3D×5): 0
- Days Delay T-C (HT-29 human colon tumor; 25 mg/kg i.v. Q3D×5): 22 days
- Drug-related Deaths (HT-29 human colon tumor; 25 mg/kg i.v. Q3D×5): 0/10
- Complete Regressions (HT-29 human colon tumor; 50 mg/kg i.v. Q3D×5): 0
- Days Delay T-C (HT-29 human colon tumor; 50 mg/kg i.v. Q3D×5): 32 days
- Drug-related Deaths (HT-29 human colon tumor; 50 mg/kg i.v. Q3D×5): 0/10
- Complete Regressions (HT-29 human colon tumor; 75 mg/kg i.v. Q3D×5): 0
- Days Delay T-C (HT-29 human colon tumor; 75 mg/kg i.v. Q3D×5): 34 days
- Drug-related Deaths (HT-29 human colon tumor; 75 mg/kg i.v. Q3D×5): 6/10
- anti-tumor activity compared to doxorubicin (HT-29 human colon tumor; HT29 human colon carcinoma xenograft): activity superior to doxorubicin; also recorded: superior anti-tumor activity
- solubility ([1]; aqueous with cosolvent or surfactant or cyclodextrin, Cremophor ® EL-P:ethanol:saline (10:10:80)): 16.8 mg/mL (≈ 18.2 mM)
- solubility ([1]; dimethyl isosorbide (DMI), organic solvent or mixture): 490 mg/mL (≈ 533 mM)
- solubility ([1]; ethanol, organic solvent or mixture): 252 mg/mL (≈ 274 mM)
- Drug-related Deaths ([2]; 50 mg/kg i.v. Q3D×5): 0/5
- Tumor Growth Delay T-C ([2]; 50 mg/kg i.v. Q3D×5): 28 days
- Complete Regressions ([2]; 75 mg/kg i.v. Q3D×5): 0
- Drug-related Deaths ([2]; 75 mg/kg i.v. Q3D×5): 0/5
- Tumor Growth Delay T-C ([2]; 75 mg/kg i.v. Q3D×5): 25 days
- Complete Regressions ([2]; 100 mg/kg i.v. Q3D×5): 0
- Drug-related Deaths ([2]; 100 mg/kg i.v. Q3D×5): 4/5
- Complete Regressions ([2]; 150 mg/kg i.v. Q3D×5): 0
- Drug-related Deaths ([2]; 150 mg/kg i.v. Q3D×5): 4/5
- anti-tumor activity compared to the unconjugated drug (tumor growth): superior
- Complete Regressions ([3]; 12.5 mg/kg i.v. Q3D×5): 0
- Days Delay T-C ([3]; 12.5 mg/kg i.v. Q3D×5): -2.0 days
- Drug-related Deaths ([3]; 12.5 mg/kg i.v. Q3D×5): 0/10
- Complete Regressions ([3]; 25 mg/kg i.v. Q3D×5): 0
- Days Delay T-C ([3]; 25 mg/kg i.v. Q3D×5): 1.5 days
- Drug-related Deaths ([3]; 25 mg/kg i.v. Q3D×5): 0 and 0/10
- Complete Regressions ([3]; 50 mg/kg i.v. Q3D×5): 0
- Days Delay T-C ([3]; 50 mg/kg i.v. Q3D×5): 13 days
- Drug-related Deaths ([3]; 50 mg/kg i.v. Q3D×5): 6/10
- Complete Regressions ([3]; 75 mg/kg i.v. Q3D×5): 0
- Days Delay T-C ([3]; 75 mg/kg i.v. Q3D×5): 21 days
- Drug-related Deaths ([3]; 75 mg/kg i.v. Q3D×5): 9/10
- anti-tumor activity compared to doxorubicin ([3]; MDA-MB-435 human breast carcinoma xenograft): active, but somewhat less active than doxorubicin and somewhat less efficacious than doxorubicin and not
- time stable in mouse plasma ([4]; 10 mg/mL formulation pH 7.5, 10 parts to 90 parts plasma): more than 8 hours
- drug still present ([4]; mouse plasma, 24 hours): over 90%
- MTD [5]: 50 to 75 mg/kg
- Complete Regressions (M109-Lung Tumor; 35 mg/kg i.v. Q3D×5): 0
- Days Delay T-C (M109-Lung Tumor; 35 mg/kg i.v. Q3D×5): 1.1 days
- Drug-related Deaths (M109-Lung Tumor; 35 mg/kg i.v. Q3D×5): 0/5
- Complete Regressions (M109-Lung Tumor; 50 mg/kg i.v. Q3D×5): 0
- Days Delay T-C (M109-Lung Tumor; 50 mg/kg i.v. Q3D×5): 5.2 days
- Drug-related Deaths (M109-Lung Tumor; 50 mg/kg i.v. Q3D×5): 0/5
- Complete Regressions (M109-Lung Tumor; 65 mg/kg i.v. Q3D×5): 0
- Days Delay T-C (M109-Lung Tumor; 65 mg/kg i.v. Q3D×5): 9.3 days
- Drug-related Deaths (M109-Lung Tumor; 65 mg/kg i.v. Q3D×5): 0/5
- Complete Regressions (M109-Lung Tumor; 80 mg/kg i.v. Q3D×5): 0
- Days Delay T-C (M109-Lung Tumor; 80 mg/kg i.v. Q3D×5): 9.5 days
- Drug-related Deaths (M109-Lung Tumor; 80 mg/kg i.v. Q3D×5): 0/5
